From patent US7326540B2, “Methods for identifying compounds that modulate stabilization of secretase-associated proteins” (priority 2003, dated 2008)
Where a SMILES comes first, the peptide text is derived from it. The star is where a group is joined. Cbz = O=C(OCc1ccccc1)*; CH2F = FC*

What was measured:
[1] = system: E-cadherin; test: E-cadherin proteolysis in A431 cells during STS-induced apoptosis (Western blot, C36 antibody); type: cell-based, human; settings: zVAD-FMK 100 μM pre-incubated 30 min, then STS 6 hours
Procedure: FIG. 11 provides digitized images and graphs showing that apoptosis enhances γ-secretase activity and levels of γ-secretase complex proteins. FIG. 11a: Apoptosis was induced in CAB, CHO-CC99/PS1 and CHO-APP 751/PS1 by STS treatment for 6 hours with or without zVAD (100 μM). Secreted Aβ1−total was measured by ELISA. […] Each bar represents the mean and SD of quadruplicate determinations. FIG. 11b: Western blot analysis with the antibody, A8717, detected endogenous APP-FL and overexpressed C99 in CHO-CC99/PS1cells, while overexpressed APP-FL and C83 were detected in CHO-APP751/PS1 cells. FIG. 11c: A431 human epithelial cells were pre-incubated for 30 min in the absence (−) or presence (+) of zVAD-FMK (100 μM), L-685,458 (0.5 μM) or GM6001 (2.5 μM). Cells were then treated with STS for 6 hours to induce apoptosis, and cell extracts were probed with anti-E-cadherin C36 antibody. FIG. 11d: Protein levels of γ-secretase complex components were monitored by Western blotting employing the anti-nicastrin, Ab14, PNT2, H2D2 antibodies. Densitometry analysis was performed using NIH image software. Each bar represents the mean and SEM of at least three experiments. FIG. 11e: Nicastrin was transiently transfected in the A431 cells. Western blot analysis for E-cadherin and γ-secretase complex component was performed as in FIG. 11c and FIG. 11d β-tubulin was used as loading control.
To confirm that apoptosis/caspase activation increases γ-secretase activity, we next examined the proteolysis of E-cadherin, another γ-secretase substrate (Marambaud, P. et al., Embo J21, 1948-56 (2002)) during apoptosis. We confirmed that caspase activation enhanced the production of E-Cad/CTF1 (Steinhusen, U. et al., J Biol Chem 276, 4972-80 (2001)), E-Cad/CTF2 (Marambaud, P. et al., 2002) (˜2- and 3-fold increase by densitometry analysis, respectively), and generated E-Cad/CTF3 (Marambaud, P. et al., 2002) (FIG. 11c). […]

[2] = system: β-secretase; test: C99 levels by Western blot (WO2) in CAB cells; type: cell-based, Chinese Hamster; settings: STS-induced apoptosis, CHO cells expressing APP751 and BACE (CAB)
Procedure: (§1) Chinese Hamster Ovary (CHO) cells expressing APP751 and BACE (CAB), CHO cells expressing full-length APP and wild-type PS1 (CHO-APP751/PS1) or expressing C99 and wild-type PS1 (CHO-CC99/PS1), H4 human neuroglioma cells expressing APP751 (H4-APP751), mouse embryonic fibroblast (MEF), embryonic stem (ES) cells, and human epithelial A431 cells were grown as described previously (Marambaud, P. et al., Embo J 21, 1948-56 (2002); Cai, H. et al., Nat Neurosci 4, 233-4 (2001); Sato, N. et al., Nat Cell Biol 2, 863-70 (2000); Puglielli, L., Ellis, B. C., Saunders, A. J. & Kovacs, D. M., J Biol Chem 278, 19777-83 (2003); Wolfe, M. S. et al., Nature 398, 513-7 (1999)). For the induction of apoptosis, we used staurosporine or etoposide (Calbiochem (EMD Biosciences, San Diego, Calif.)). For Aβ measurements, cells were seeded at the density of 0.5×10^6 cells per well in 6 well plates. After 48 hours, cells were treated with either STS (1 μM) for 6 hours. In order to inhibit caspase activation a sister plate of cells was pre-treated with zVAD (1001M, Enzyme Systems Products) for 1 hour before STS treatment. For time-course experiments, cells were seeded at the density of 2×10^6 cells per 100 mm dish and treated with STS (1 μM) or etoposide (100 μg/mL). At different time points (0, 3, 6, 9, 12 and 24 hours), the cells were scraped, centrifuged and then lysed in buffer containing 1% NP40. […]

[3] = system: γ-secretase; test: Secreted Aβ1-total ELISA in CHO-CC99/PS1 cells; type: cell-based, Chinese Hamster; settings: STS-treated CHO-CC99/PS1 cells, 6 hours
Procedure: as §1, with “hours.” for “hours. In order to inhibit caspase activation a sister plate of cells was pre-treated with zVAD (1001M, Enzyme Systems Products) for 1 hour before STS treatment. For time-course experiments, cells were seeded at the density of 2×10^6 cells per 100 mm dish and treated with STS (1 μM) or etoposide (100 μg/mL). At different time points (0, 3, 6, 9, 12 and 24 hours), the cells were scraped, centrifuged and then lysed in buffer containing 1% NP40.”
Secreted Aβ1-total was measured in the conditioned media of untreated cells or of cells treated with STS or STS plus zVAD using a sensitive ELISA (Wolfe, M. S. et al., Nature 398, 513-7 (1999). At least three different experiments were carried out and each experiment was performed at least in triplicate. […]

[4] = system: γ-secretase complex proteins; test: γ-secretase complex protein levels by Western blot in CHO cell lines; type: cell-based, Chinese Hamster
Procedure: as §1

| Structure (SMILES) | generation of E-Cad/CTF3 [1] | levels of C99 [2] | Aβ1-total increase compared to untreated cells [3] [fold] | nicastrin and Pen2 protein levels ([4]; STS treatment, CHO cells overexpressing APP751 and PS1WT and mouse fibroblasts) | endogenous nicastrin protein levels ([4]; six hours after STS treatment, CAB cells) |
| --- | --- | --- | --- | --- | --- |
| COC(=O)C[C@H](NC(=O)[C@H](C)NC(=O)[C@@H](NC(=O)OCc1ccccc1)C(C)C)C(=O)CF [zVAD] (Cbz-Val-Ala-Asp(OMe)-CH2F) | inhibited | – | – | – | – |
| CN[C@@H]1C[C@H]2O[C@@](C)([C@@H]1OC)n1c3ccccc3c3c4c(c5c6ccccc6n2c5c31)C(=O)NC4 [STS, staurosporine] | – | increased | ~1.5 | up-regulated | increase |
